Measurements from patent US20120039813A1, “INTRINSICALLY COLORED, LUMINESCENT SILK FIBROIN AND A METHOD OF PRODUCING THE SAME” (priority 2009, published 2012).
“Also recorded” adds a separate entry of the source.

Tests used:
silkworm [1] = experiment: Uptake of dyes into the silkworm and the silk fibroin after feeding dye-modified feed; type: in vivo; conditions: for Uptake of dye in worm / Uptake of dye in fibroin: dye fed to silkworm in modified feed; for Uptake of dye in fibroin: silk fibroin
Excerpt: The modified feed was then fed to silkworms starting on the third day of fifth instar. The silk gland, obtained through dissection, also absorbed the dye and became colored. At day 8-9 of fifth instar, the silkworms started producing intrinsically colored and fluorescent silk cocoon as shown in FIG. 3. […]

physchem = experiment: physchem
Excerpt: (§1) FIG. 12 depicts the quantity of various dyes in sericin and fibroin per gram of raw silk as a function of their n-octanol/water partition coefficient (log p).
(§2) FIG. 12 summarizes the amounts of various dyes distributed in silk's fibroin and sericin as a function of log P, a measure of hydrophobicity.

silkworm [2] = experiment: Quantity of various dyes in sericin, fibroin and gland content of dye-fed silkworms
Excerpt: as §1, §2

[3] = other dye molecules apart from the rhodamine series, feeding method

CN(C)c1ccc2cc3ccc(N(C)C)cc3nc2c1 [Acridine orange, acridine orange]
Uptake into silk gland and silk (silkworm [1]; [3]): efficient uptake
logP (physchem): 1.8
Amount of dye present in silk (sericin and fibroin) and silkworm (silkworm [2]; in vivo): very low concentration in silk
Concentration in gland content (silkworm [2]; in vivo): very low

O=S1(=O)OC(c2cc(Br)c(O)c(Br)c2)(c2cc(Br)c(O)c(Br)c2)c2ccccc21 [Bromophenol blue]
Uptake into silk gland and silk (silkworm [1]; [3]): did not display significant uptake

O=C1OC2(c3ccc(O)cc3Oc3cc(O)ccc32)c2ccccc21 [Fluorescein, fluorescein]
Uptake into silk gland and silk (silkworm [1]; [3]): did not display significant uptake
logP (physchem): -0.79
Amount of dye present in silk (sericin and fibroin) and silkworm (silkworm [2]; in vivo): negligible presence in silk and in silkworm

O=C(O)c1ccccc1C1=c2cc3c4c(c2Oc2c1cc1c5c2CCCN5CCC1)CCC[N+]=4CCC3.[Cl-] [Rhodamine 101, rhodamine 101]
Uptake of dye in worm (silkworm [1]): yes
Uptake of dye in fibroin (silkworm [1]): yes
log P (n-octanol/water partition coefficient) (physchem): 2.19
Amount of dye present in silk (sericin and fibroin) and silkworm (silkworm [2]; FIG. 12, result in words): much higher concentration
Distribution of dye between silk sericin and fibroin (silkworm [2]; FIG. 12, result in words): majority residing in silk fibroin rather than sericin

Cl.N=c1ccc2c(-c3ccccc3C(=O)O)c3ccc(N)cc3oc-2c1 [Rhodamine 110, rhodamine 110]
log P (n-octanol/water partition coefficient) (physchem): 1.17
Amount of dye present in silk (sericin and fibroin) and silkworm (silkworm [2]; FIG. 12, result in words): substantial amounts in both sericin and fibroin; also recorded: lower uptake

CCN(CC)c1ccc2c(c1)Oc1cc(N(CC)CC)ccc1C21OC(=O)c2ccccc21 [Rhodamine B base, rhodamine B base]
Uptake of dye in worm (silkworm [1]): yes
Uptake of dye in fibroin (silkworm [1]): yes

CCN(CC)c1ccc2c(-c3ccccc3C(=O)O)c3ccc(=[N+](CC)CC)cc-3oc2c1.[Cl-] [Rhodamine B, rhodamine B]
Uptake of dye in worm (silkworm [1]): yes
Uptake of dye in fibroin (silkworm [1]): yes
log P (n-octanol/water partition coefficient) (physchem; measure of hydrophobicity): 2.43
Amount of dye present in silk (sericin and fibroin) and silkworm (silkworm [2]; FIG. 12, result in words): much higher concentration
Distribution of dye between silk sericin and fibroin (silkworm [2]; FIG. 12, result in words): majority residing in silk fibroin rather than sericin
Concentration in gland content (silkworm [2]; in vivo): ~1000 µM

O=S(=O)([O-])c1cc(S(=O)(=O)O)ccc1C1=c2cc3c4c(c2Oc2c1cc1c5c2CCCN5CCC1)CCC[N+]=4CCC3 [sulforhodamine 101]
log P (n-octanol/water partition coefficient) (physchem): −0.69
Amount of dye present in silk (sericin and fibroin) and silkworm (silkworm [2]; in vivo): negligible presence in silk and in silkworm

Alcian blue
Uptake into silk gland and silk (silkworm [1]; in vivo): did not display significant uptake

rhodamine 116
log P (n-octanol/water partition coefficient) (physchem; measure of hydrophobicity): 0.64

rhodamine 123
Uptake of dye in worm (silkworm [1]): no
Uptake of dye in fibroin (silkworm [1]): no
